The target of test [1] is T1, Quantilum recombinant luciferase (Photinus pyralis, UniProt P08659).
T1 construct: purchased Promega (Madison, WI)
As to the kind of experiment: Luciferase activity determination (native luciferase control). It counts as biochemical. The note with it: Suramin 100 µM, luciferase 50 nM; data not shown. As for the experimental part: Quantilum recombinant luciferase (native) was diluted to 5000, 500, 50, 5 and 0.5 nM in the presence or absence of Suramin. Dilutions were mixed with luciferase assay system (Promega). Luciferase activity was assessed by luminescence measured on a Safire^2 microplate reader.

In a further test the target is T2, ClpB (Escherichia coli, UniProt P63284).
T2 construct: made in house
The test can be described thus: ClpB luciferase reactivation assay. It counts as biochemical, E. coli. As for the experimental part:
Luciferase reactivation was performed as described, [37]. To assemble aggregates, firefly luciferase (50 µM) in luciferase refolding buffer (LRB, 25 mM HEPES-KOH, 7.4, 150 mM KAOc, 10 mM MgAOc, 10 mM DTT) with 6 M urea was incubated at 30°C for 20 min. Luciferase was then rapidly diluted 100-fold into LRB, divided into 100 µL aliquots, snap frozen in liquid N2, and stored at −80°C. For reactivation assays, aggregated luciferase (50 nM) was incubated with Hsp104 (1 µM hexamer), plus 2.6 mM ATPγS, 2.6 mM ATP and an ATP regeneration system (1 mM creatine phosphate, 0.25 µM creatine kinase (Roche Applied Science)) for 90 minutes at 25°C. Luciferase assay system was purchased from Promega. Luciferase activity was assessed by luminescence measured on a Safire^2 microplate reader (Tecan, Männedorf, Switzerland). The half maximal inhibitory concentration (IC50) was calculating by fitting luciferase-refolding data at different Suramin concentrations with Prism (GraphPad Software, Inc., La Jolla, CA).
(A) ClpB (0.25 µM monomer) was incubated for 10 min with ATP (1 mM) and varying concentrations of Suramin. The amount of Pi produced was measured by absorbance at 635 nm. Absorbance values were normalized to the absorbance produced by ClpB in the absence of inhibitor. Values represent mean ±S.D. (n = 6). (B) Urea-denatured firefly luciferase aggregates were incubated for 90 min at 25°C with ClpB (1 µM hexamer) in the presence of 1∶1 mixtures of ATP and ATPγS and varying concentrations of Suramin. Reactivation of luciferase was then determined by luminescence and converted to % WT ClpB activity (activity of 1 µM WT ClpB in the presence of ATP and ATPγS). Values represent mean ±S.D. (n = 6–12). TEXT PRINTED IN THE PICTURE: (A) Suramin: Normalized ATPase Activity: 1.03 ([Suramin] μM: 0); Normalized ATPase Activity: 0.76 ([Suramin] μM: 100); Normalized ATPase Activity: 0.78 ([Suramin] μM: 50); Normalized ATPase Activity: 0.60 ([Suramin] μM: 25); Normalized ATPase Activity: 0.59 ([Suramin] μM: 10); Normalized ATPase Activity: 0.65 ([Suramin] μM: 5); Normalized ATPase Activity: 1.01 ([Suramin] μM: 1) | (B) Suramin: Normalized Luciferase Refolding Activity: 1.00 ([Suramin] μM: 0); Normalized Luciferase Refolding Activity: 0.16 ([Suramin] μM: 100); Normalized Luciferase Refolding Activity: 1.03 ([Suramin] μM: 50); Normalized Luciferase Refolding Activity: 1.39 ([Suramin] μM: 25); Normalized Luciferase Refolding Activity: 2.23 ([Suramin] μM: 10); Normalized Luciferase Refolding Activity: 1.82 ([Suramin] μM: 5); Normalized Luciferase Refolding Activity: 1.02 ([Suramin] μM: 1)

For test [2], the system named is HAP (Hsp104 variant) with ClpP. The test can be described thus: FITC-casein degradation (substrate translocation) assay. To be noted: 25°C. It counts as biochemical. As for the experimental part:
FITC-casein (0.1 µM) was incubated with HAP (1 µM hexamer) and ClpP (21 µM monomer) at 25°C. ATP ([…]) and an ATP-regenerating system were included in all reactions. Varying concentrations of Suramin (0, 25, or 100 µM) were included as noted. We monitored degradation of FITC-casein by measuring fluorescence (excitation 490 nm, emission 520 nm) using a Tecan Safire^2 microplate reader (Tecan, Männedorf, Switzerland).
Next, we established that Suramin hampers substrate translocation by Hsp104 using an engineered Hsp104 variant, HAP, which anchors to the bacterial peptidase ClpP to form a novel proteolytic system. Thus, HAP translocates fluorescein isothiocyanate (FITC)-casein for degradation by ClpP. Fluorescence increases as FITC is released from degraded casein and can be used as a surrogate for substrate translocation. […] Note that both the unfolding and translocation activities appear less sensitive to Suramin than disaggregase activity ( Figures 3B , 4A and 4B ). Thus, disaggregation of protein aggregates makes more stringent demands on the Hsp104 hexamer than the unfolding or translocation of soluble substrates. Altogether, we have established that Suramin greatly decreases Hsp104 ATPase activity, drastically impairs its capacity to refold luciferase and hinders its substrate unfolding and translocation activities.

Another test relates to Δpdr5 yeast. The test can be described thus: [PSI+] propagation in Δpdr5 yeast. The format is cell-based. To be noted: Suramin 100 µM, data not shown.
Another test deals with T3, Hsp104^N728A (Saccharomyces cerevisiae, UniProt P31539, N728A).
T3 construct: made in house; host or cells: E. coli BL21-DE3 RIL
As to the kind of experiment: ATPase assay, Hsp104^N728A. The format is biochemical, yeast. The note with it: read-out: Hsp104^N728A ATPase activity relative to uninhibited protein. As to the method:
Wild-type or mutant Hsp104 (0.25 µM monomer) in ATPase buffer (20 mM HEPES-KOH pH 7.4, 20 mM NaCl and 10 mM MgCl2) was incubated for 60 or 10 min at 25°C in the presence of ATP (1 mM) as noted. ATPase activity was assessed by the release of inorganic phosphate determined by using a malachite green phosphate detection kit (Innova).
Figure 7 Hsp104 variants respond differently to Suramin than Hsp104^WT. (A) Hsp104 variants (0.25 µM monomer) were incubated for 10 min with ATP (1 mM) and varying concentrations of Suramin. The amount of Pi produced was measured by absorbance at 635 nm. Absorbance values were normalized to the absorbance produced by each Hsp104 variant in the absence of inhibitor. Values represent mean ±S.D. (n = 6). (B) Urea-denatured firefly luciferase aggregates were incubated for 90 min at 25°C with Hsp104 variants (1 µM hexamer) plus 1∶1 mixtures of ATP and ATPγS (or ATP alone) and varying concentrations of Suramin. Luciferase reactivation was then determined and normalized to untreated disaggregase activity for each variant in the presence of ATPγS: ATP (or ATP alone). 1∶1 mixtures of ATP and ATPγS were used for Hsp104^WT and Hsp104^T317A, while ATP alone was used for Hsp104^A503V and Hsp104^N728A. Values represent mean ±S.D. (n = 6–12).

The structures appear in SMILES notation.

T2 sequence (P63284 whole entry): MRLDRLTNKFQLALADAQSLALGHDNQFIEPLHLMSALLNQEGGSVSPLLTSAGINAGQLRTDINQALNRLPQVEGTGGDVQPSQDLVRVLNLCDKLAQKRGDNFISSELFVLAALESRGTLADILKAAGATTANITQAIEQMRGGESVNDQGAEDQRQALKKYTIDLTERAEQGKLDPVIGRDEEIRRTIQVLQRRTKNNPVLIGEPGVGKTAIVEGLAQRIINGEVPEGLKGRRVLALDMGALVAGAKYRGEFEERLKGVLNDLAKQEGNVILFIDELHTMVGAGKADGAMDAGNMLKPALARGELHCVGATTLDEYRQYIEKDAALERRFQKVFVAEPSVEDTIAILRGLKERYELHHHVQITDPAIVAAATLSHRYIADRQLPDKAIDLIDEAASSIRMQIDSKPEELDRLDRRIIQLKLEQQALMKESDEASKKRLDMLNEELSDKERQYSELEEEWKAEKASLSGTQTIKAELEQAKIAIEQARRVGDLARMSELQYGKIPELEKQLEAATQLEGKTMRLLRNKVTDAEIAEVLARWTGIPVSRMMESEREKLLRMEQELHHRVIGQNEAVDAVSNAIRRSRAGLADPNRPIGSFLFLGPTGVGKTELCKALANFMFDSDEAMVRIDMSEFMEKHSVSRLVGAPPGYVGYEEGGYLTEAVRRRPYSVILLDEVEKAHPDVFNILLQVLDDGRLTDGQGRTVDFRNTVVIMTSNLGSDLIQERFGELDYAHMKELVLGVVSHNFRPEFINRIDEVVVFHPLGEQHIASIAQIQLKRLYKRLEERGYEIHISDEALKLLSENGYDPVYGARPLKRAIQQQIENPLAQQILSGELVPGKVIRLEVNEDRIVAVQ
T1 sequence (P08659 whole entry): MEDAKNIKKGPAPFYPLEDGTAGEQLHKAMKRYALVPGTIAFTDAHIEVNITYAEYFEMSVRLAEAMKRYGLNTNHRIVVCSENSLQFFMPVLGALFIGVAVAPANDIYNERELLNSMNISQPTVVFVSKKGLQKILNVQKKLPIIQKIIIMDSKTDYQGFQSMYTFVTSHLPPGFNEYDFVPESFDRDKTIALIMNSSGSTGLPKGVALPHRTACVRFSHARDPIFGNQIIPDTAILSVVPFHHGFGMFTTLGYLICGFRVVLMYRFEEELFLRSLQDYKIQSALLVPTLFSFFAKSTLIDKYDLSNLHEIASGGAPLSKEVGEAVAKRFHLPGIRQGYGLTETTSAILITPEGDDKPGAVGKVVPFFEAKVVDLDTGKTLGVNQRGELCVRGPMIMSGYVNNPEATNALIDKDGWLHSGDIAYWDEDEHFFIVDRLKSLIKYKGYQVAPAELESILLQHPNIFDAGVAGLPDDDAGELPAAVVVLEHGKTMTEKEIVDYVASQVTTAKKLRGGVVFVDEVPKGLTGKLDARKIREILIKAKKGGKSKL
T3 sequence (P31539 whole entry N728A): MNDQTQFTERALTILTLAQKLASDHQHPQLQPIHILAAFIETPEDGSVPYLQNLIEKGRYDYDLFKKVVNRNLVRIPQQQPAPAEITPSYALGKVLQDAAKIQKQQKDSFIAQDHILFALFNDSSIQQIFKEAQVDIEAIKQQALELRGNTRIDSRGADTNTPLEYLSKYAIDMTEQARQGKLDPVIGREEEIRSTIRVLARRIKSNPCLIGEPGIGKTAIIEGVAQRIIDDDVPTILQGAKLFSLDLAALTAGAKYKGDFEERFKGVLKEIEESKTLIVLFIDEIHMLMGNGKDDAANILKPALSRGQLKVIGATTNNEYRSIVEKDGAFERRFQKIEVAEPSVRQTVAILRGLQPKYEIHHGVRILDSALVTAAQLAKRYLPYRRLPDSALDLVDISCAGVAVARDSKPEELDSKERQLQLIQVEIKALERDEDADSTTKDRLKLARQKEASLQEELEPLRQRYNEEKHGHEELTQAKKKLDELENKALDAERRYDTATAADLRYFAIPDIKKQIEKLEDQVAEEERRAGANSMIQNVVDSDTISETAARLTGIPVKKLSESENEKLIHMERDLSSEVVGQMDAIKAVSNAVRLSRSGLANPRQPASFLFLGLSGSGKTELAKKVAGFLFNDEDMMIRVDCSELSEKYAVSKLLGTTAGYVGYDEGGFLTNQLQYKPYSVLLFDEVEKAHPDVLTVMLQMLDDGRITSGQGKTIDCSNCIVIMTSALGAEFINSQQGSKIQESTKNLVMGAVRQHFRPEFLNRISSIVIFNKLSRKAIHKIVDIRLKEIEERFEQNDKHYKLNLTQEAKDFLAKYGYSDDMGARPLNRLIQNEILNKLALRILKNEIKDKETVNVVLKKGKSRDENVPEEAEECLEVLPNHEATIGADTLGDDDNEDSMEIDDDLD

In the case of `Cc1ccc(C(=O)Nc2ccc(S(=O)(=O)O)c3cc(S(=O)(=O)O)cc(S(=O)(=O)O)c23)cc1NC(=O)c1cccc(NC(=O)Nc2cccc(C(=O)Nc3cc(C(=O)Nc4ccc(S(=O)(=O)O)c5cc(S(=O)(=O)O)cc(S(=O)(=O)O)c45)ccc3C)c2)c1` [Suramin], the “Effect on luciferase activity itself” value in test [1] is “did not inhibit luciferase activity”. In addition, the “Normalized Luciferase Refolding Activity” value on ClpB (ClpB 1 µM hexamer, Suramin 100 µM, 90 min 25°C, ATP:ATPγS 1:1, Figure 5B) stood at 0.16; on ClpB (ClpB, Suramin 1 µM, Figure 5B), 1.02; on ClpB (ClpB, Suramin 5 µM, Figure 5B), 1.82; at ClpB (ClpB, Suramin 10 µM, Figure 5B) it was 2.23; on ClpB (ClpB, Suramin 25 µM, Figure 5B), 1.39; at ClpB (ClpB, Suramin 50 µM, Figure 5B), 1.03. At ClpB (Suramin 50 µM), the “ClpB refolding power retained” value is on record as 100%. Also, the remaining activity at 100 µM on ClpB (Suramin 100 µM, read-out: ClpB disaggregase activity remaining) came out at 16%. Also, the “Effect on ClpB luciferase reactivation” value on ClpB (low concentrations of Suramin) is “increased the amount of luciferase ClpB was able to reactivate”. In addition, the results for the “Effect on substrate translocation (FITC-casein degradation by HAP/ClpP)” value in test [2] (Suramin 25 µM) and in test [2] (Suramin 100 µM) were “permits translocation activity equivalent to that by untreated HAP in conjunction with ClpP” and “completely abolished substrate translocation”, respectively. In the test with Δpdr5 yeast, the “Effect on [PSI+] propagation” value is “impaired neither”. In addition, at Hsp104^N728A, the activity at 100 µM was about 75%.

The record behind these values is paper PMC4192545, “Suramin Inhibits Hsp104 ATPase and Disaggregase Activity” (PLoS ONE, 2014).
